Experimental data as given in PubChem BioAssay (NCI).
Where “and” joins values, the source holds several entries; their conditions need not be identical. Identical values can stand only once.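 All cell lines were grown in 96-well plates and treated with compound for 48 hours. GI50: concentration for 50% inhibition of growth. TGI: concentration producing complete growth inhibition.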

The molecules below were run on IGROV1 ovarian (assay: NCI anticancer screen, dose series, 48 h).

| Structure (SMILES) | GI50 | TGI |
| --- | --- | --- |
| COc1cc(/C=C/C(=O)c2cccc(-n3cc(-c4ccc(Cl)cc4)[nH]c3=O)c2)ccc1O | 2000 nM | 5.61 µM |
| Cc1ccc2c(C3C(C#N)=C(N)Oc4cc5ccccc5cc43)cc(=O)oc2c1 (configuration not stated) | 983 nM | > 100 µM |
| C[N+](C)(C)CC1CCC/C1=N\OC(=O)c1ccccc1 (configuration not stated) | – | > 100 µM |
| O=C(Nc1cc(C(F)(F)F)ccc1Cl)c1cccc(NC2=C(Cl)C(=O)N(Cc3ccccc3)C2=O)c1 | 2810 nM | > 100 µM |
| CC1(Br)Cc2ccccc2C1=O (configuration not stated) | – | 15 µM |
| COc1ccc2c(c1)c[n+](C)c1c3cc(OC)c(OC)cc3ccc21 | 1390 nM and 4400 nM | 2.85 µM and 15.8 µM |
| CN(C)C(=S)Sc1ccc([N+](=O)[O-])cc1[N+](=O)[O-] | 1260 nM | 13.1 µM |
| O=C1c2cc3c(cc2-c2c1c1cc(Cl)c(Cl)cc1c(=O)n2C[C@H](O)CO)OCO3 | 21.9 nM | 2.08 µM |
| CC(C)(C)[Si](C)(C)OC1C(=O)C[C@H]2CCCC[C@@H]12 (some centres not stated) | – | > 100 µM |
| CC1(C)N=C(N)N=C(N)N1c1ccc(CCCCc2ccc(Cl)c(S(=O)(=O)F)c2)c(Cl)c1 | 117 nM | 20.7 µM |
| CCc1c(Cl)c(C)cc(O)c1Cl | – | > 100 µM |
| BrCc1cccc(C[P+](c2ccccc2)(c2ccccc2)c2ccccc2)c1 | 21600 nM | > 100 µM |
| C=COC(=O)N[C@H]1CCc2cc(OC)c(OC)c(OC)c2-c2ccc(SC)c(=O)cc21 | – | > 100 µM |
| Cc1ccc(NC(=O)CCc2nnc(N)o2)cc1 | – | > 100 µM |
| CN(C)c1ncnc2c1ncn2CCn1cnc2c(N(C)C)ncnc21 | – | > 100 µM |
| CSc1nc(NC2OC(COC(C)=O)C(OC(C)=O)C(OC(C)=O)C2OC(C)=O)c(N=CC=Nc2c(NC3OC(COC(C)=O)C(OC(C)=O)C(OC(C)=O)C3OC(C)=O)nc(SC)n(C)c2=O)c(=O)n1C (configuration not stated) | > 50000 nM | > 100 µM |
| O=S(=O)(Nc1ccc(Cl)cc1Cl)c1ccc(-c2cnc(C3CC3)o2)cc1 | 647 nM | > 73.3 µM |
| CCc1ccc(/C=C/c2ccc(O)c3ncccc23)[n+](C)c1 | 11400 nM | > 100 µM |
| S=c1[nH]c2c(Cl)c(Cl)c(Cl)c(Cl)c2[nH]1 | – | 37.8 µM |
| Cc1ccc(Nc2oc(-c3ccccc3)nc2[P+](c2ccccc2)(c2ccccc2)c2ccccc2)cc1 | 889 nM | 2.37 µM |
| CS(=O)(=O)Nc1cc(-c2ccc3ncnc(Nc4c(Cl)ccc5c4OCO5)c3c2)cnc1Cl | 33.2 nM | 0.209 µM |
| COc1ccccc1Nc1ncc(-c2ccccc2)o1 | > 25000 nM | > 25 µM |
| Nc1ccn(C2OC(CO)C(O)C2O)c(=O)n1 (configuration not stated) | 37900 nM | > 500 µM |
| O=C1CCC(=O)c2c1c(O)c1ccncc1c2O | – | 31.6 µM |
| CN(C)c1ccc(N=Nc2ccccn2)c(O)c1 | 317 nM | > 100 µM |
| CN1CC[C@@H](c2c(O)cc(O)c3c(=O)cc(-c4ccc(C(F)(F)F)cc4Cl)oc23)[C@@H]1CO | 11800 nM | 38.6 µM |
| COC(=O)C1=C(C(=O)OC)C2=S(SC3=C2CCCC3)S1 (configuration not stated) | – | > 100 µM |
| O=C(NNc1ccccc1)C(=O)NNc1ccccc1 | > 100000 nM | > 100 µM |
| O=C(Nc1ccc(Cl)c(C(F)(F)F)c1)c1ccc(NC2=C(Cl)C(=O)N(Cc3ccccc3)C2=O)cc1 | 1590 nM | 3.92 µM |

What follows are molecules tested on UACC-62 melanoma (assay: NCI anticancer screen, dose series, 48 h).

| Structure (SMILES) | GI50 | TGI |
| --- | --- | --- |
| COc1cc(/C=C/C(=O)c2cccc(-n3cc(-c4ccc(Cl)cc4)[nH]c3=O)c2)ccc1O | 2500 nM | 9.59 µM |
| Cc1ccc2c(C3C(C#N)=C(N)Oc4cc5ccccc5cc43)cc(=O)oc2c1 (configuration not stated) | 704 nM | > 100 µM |
| C[N+](C)(C)CC1CCC/C1=N\OC(=O)c1ccccc1 (configuration not stated) | – | > 100 µM |
| O=C(Nc1cc(C(F)(F)F)ccc1Cl)c1cccc(NC2=C(Cl)C(=O)N(Cc3ccccc3)C2=O)c1 | 26500 nM | > 100 µM |
| CC1(Br)Cc2ccccc2C1=O (configuration not stated) | – | 3.63 µM |
| COc1ccc2c(c1)c[n+](C)c1c3cc(OC)c(OC)cc3ccc21 | – | 23.9 µM |
| CN(C)C(=S)Sc1ccc([N+](=O)[O-])cc1[N+](=O)[O-] | 1710 nM | 5.97 µM |
| O=C1c2cc3c(cc2-c2c1c1cc(Cl)c(Cl)cc1c(=O)n2C[C@H](O)CO)OCO3 | < 10 nM | 0.0126 µM |
| CC(C)(C)[Si](C)(C)OC1C(=O)C[C@H]2CCCC[C@@H]12 (some centres not stated) | – | > 100 µM |
| CC1(C)N=C(N)N=C(N)N1c1ccc(CCCCc2ccc(Cl)c(S(=O)(=O)F)c2)c(Cl)c1 | 372 nM | > 47.9 µM |
| CCc1c(Cl)c(C)cc(O)c1Cl | – | > 100 µM |
| BrCc1cccc(C[P+](c2ccccc2)(c2ccccc2)c2ccccc2)c1 | 7970 nM | > 100 µM |
| C=COC(=O)N[C@H]1CCc2cc(OC)c(OC)c(OC)c2-c2ccc(SC)c(=O)cc21 | – | > 75 µM |
| Cc1ccc(NC(=O)CCc2nnc(N)o2)cc1 | – | > 100 µM |
| CN(C)c1ncnc2c1ncn2CCn1cnc2c(N(C)C)ncnc21 | – | > 100 µM |
| CSc1nc(NC2OC(COC(C)=O)C(OC(C)=O)C(OC(C)=O)C2OC(C)=O)c(N=CC=Nc2c(NC3OC(COC(C)=O)C(OC(C)=O)C(OC(C)=O)C3OC(C)=O)nc(SC)n(C)c2=O)c(=O)n1C (configuration not stated) | > 50000 nM | > 100 µM |
| O=S(=O)(Nc1ccc(Cl)cc1Cl)c1ccc(-c2cnc(C3CC3)o2)cc1 | 391 nM | 26.7 µM |
| CCc1ccc(/C=C/c2ccc(O)c3ncccc23)[n+](C)c1 | > 21500 nM | > 100 µM |
| S=c1[nH]c2c(Cl)c(Cl)c(Cl)c(Cl)c2[nH]1 | – | 33.3 µM |
| Cc1ccc(Nc2oc(-c3ccccc3)nc2[P+](c2ccccc2)(c2ccccc2)c2ccccc2)cc1 | 687 nM | 2.01 µM |
| CS(=O)(=O)Nc1cc(-c2ccc3ncnc(Nc4c(Cl)ccc5c4OCO5)c3c2)cnc1Cl | 73.2 nM | 0.785 µM |
| COc1ccccc1Nc1ncc(-c2ccccc2)o1 | > 25000 nM | > 25 µM |
| Nc1ccn(C2OC(CO)C(O)C2O)c(=O)n1 (configuration not stated) | 1930 nM | – |
| O=C1CCC(=O)c2c1c(O)c1ccncc1c2O | – | 20.1 µM |
| CN(C)c1ccc(N=Nc2ccccn2)c(O)c1 | 369 nM | – |
| CN1CC[C@@H](c2c(O)cc(O)c3c(=O)cc(-c4ccc(C(F)(F)F)cc4Cl)oc23)[C@@H]1CO | 14600 nM | 32.8 µM |
| COC(=O)C1=C(C(=O)OC)C2=S(SC3=C2CCCC3)S1 (configuration not stated) | – | > 100 µM |
| O=C(NNc1ccccc1)C(=O)NNc1ccccc1 | 430 nM | > 100 µM |
| O=C(Nc1ccc(Cl)c(C(F)(F)F)c1)c1ccc(NC2=C(Cl)C(=O)N(Cc3ccccc3)C2=O)cc1 | 16600 nM | 30.2 µM |

What follows are molecules tested on HL-60(TB) leukemia (assay: NCI anticancer screen, dose series, 48 h).

| Structure (SMILES) | GI50 | TGI |
| --- | --- | --- |
| COc1cc(/C=C/C(=O)c2cccc(-n3cc(-c4ccc(Cl)cc4)[nH]c3=O)c2)ccc1O | 4560 nM | > 24.3 µM |
| Cc1ccc2c(C3C(C#N)=C(N)Oc4cc5ccccc5cc43)cc(=O)oc2c1 (configuration not stated) | 424 nM | 17 µM |
| C[N+](C)(C)CC1CCC/C1=N\OC(=O)c1ccccc1 (configuration not stated) | – | > 100 µM |
| O=C(Nc1cc(C(F)(F)F)ccc1Cl)c1cccc(NC2=C(Cl)C(=O)N(Cc3ccccc3)C2=O)c1 | 3520 nM | 9.23 µM |
| CC1(Br)Cc2ccccc2C1=O (configuration not stated) | 495 nM | 6.67 µM and 2.35 µM |
| COc1ccc2c(c1)c[n+](C)c1c3cc(OC)c(OC)cc3ccc21 | 467 nM and 1850 nM | 3.48 µM and 16.9 µM |
| CN(C)C(=S)Sc1ccc([N+](=O)[O-])cc1[N+](=O)[O-] | 2680 nM | 8.54 µM |
| O=C1c2cc3c(cc2-c2c1c1cc(Cl)c(Cl)cc1c(=O)n2C[C@H](O)CO)OCO3 | < 10 nM | 10.5 µM |
| CC(C)(C)[Si](C)(C)OC1C(=O)C[C@H]2CCCC[C@@H]12 (some centres not stated) | – | > 100 µM |
| CC1(C)N=C(N)N=C(N)N1c1ccc(CCCCc2ccc(Cl)c(S(=O)(=O)F)c2)c(Cl)c1 | 380 nM | 4.1 µM |
| CCc1c(Cl)c(C)cc(O)c1Cl | – | 40.8 µM |
| BrCc1cccc(C[P+](c2ccccc2)(c2ccccc2)c2ccccc2)c1 | 13900 nM | 49.9 µM |
| C=COC(=O)N[C@H]1CCc2cc(OC)c(OC)c(OC)c2-c2ccc(SC)c(=O)cc21 | – | < 0.01 µM |
| Cc1ccc(NC(=O)CCc2nnc(N)o2)cc1 | – | > 91.7 µM |
| CN(C)c1ncnc2c1ncn2CCn1cnc2c(N(C)C)ncnc21 | – | > 100 µM |
